This note sets out measurements from patent US20070021360A1, “Compositions, formulations and kit with anti-sense oligonucleotide and anti-inflammatory steroid and/or obiquinone for treatment of respiratory and lung disesase” (priority 2001, published 2007).

Data set [1] deals with adenosine A1 receptor. Description: Adenosine-induced bronchoconstriction (PC50 Adenosine) in allergic rabbits. The format is in vivo. How it is done:
A fortuitous hoology between the rabbit and human DNA sequences within the adenosine A1 gene overlapping the initiation codon permitted the use of the phosphorothioate anti-sense oligonucleotides initially designed for use against the human adenosine A1 receptor in a rabbit model. Neonatal New Zealand white Pasteurella-free rabbits were immunized intraperitoneally within 24 hours of birth with 312 antigen units/ml house dust mite (D. farinae) extract (Berkeley Biologicals, Berkeley, Calif.), mixed with 10% kaolin. Immunizations were repeated weekly for the first month and then biweekly for the next 2 months. At 3-4 months of age, eight sensitized rabbits were anesthetized and relaxed with a mixture of ketamine hydrochloride (44 mg/kg) and acepromazine maleate (0.4 mg/kg) administered intramuscularly. The rabbits were then laid supine in a comfortable position on a small molded, padded animal board and intubated with a 4.0-mm intratracheal tube (Mallinkrodt, Inc., Glens Falls, N.Y.). A polyethylene catheter of external diameter 2.4 mm with an attached latex balloon was passed into the esophagus and maintained at the same distance (approximately 16 cm) from the mouth throughout the experiments. The intratracheal tube was attached to a heated Fleisch pneumotachograph (size 00; DOM Medical, Richmond, Va.), and flow was measured using a Validyne differential pressure transducer (Model DP-45161927; Validyne Engineering Corp., Northridge, Calif.) driven by a Gould carrier amplifier (Model 11-4113; Gould Electronic, Cleveland, Ohio). The esophageal balloon was attached to one side of the differential pressure transducer, and the outflow of the intratracheal tube was connected to the opposite side of the pressure transducer to allow recording of transpulmonary pressure. Flow was integrated to give a continuous tidal volume, and measurements of total lung resistance (RL) and dynamic compliance (Cdyn) were calculated at isovolumetric and flow zero points, respectively, using an automated respiratory analyzer (Model 6; Buxco, Sharon, Conn.). Animals were randomized and on Day 1 pretreatment values for PC50 were obtained for aerosolized adenosine. Anti-sense (HAdA1AS) or mismatched control (HAdA1MM) oligonucleotides were dissolved in sterile physiological saline at a concentration of 5000 μg (5 mg) per 1.0 ml. […] Aerosols of either saline, adenosine, or anti-sense or mismatch oligonucleotides were generated by an ultrasonic nebulizer (DeVilbiss, Somerset, Pa.), producing aerosol droplets 80% of which were smaller than 5:m in diameter. In the first arm of the experiment, four randomly selected allergic rabbits were administered anti-sense oligonucleotide and four the mismatched control oligonucleotide. On the morning of the third day, PC50 values (the concentration of aerosolized adenosine in mg/ml required to reduce the dynamic compliance of the bronchial airway 50% from the baseline value) were obtained and compared to PC50 values obtained for these animals prior to exposure to oligonucleotide. Following a 1 week interval, animals were crossed over, with those previously administered mismatch control oligonucleotide now administered anti-sense oligonucleotide, and those previously treated with anti-sense oligonucleotide now administered mismatch control oligonucleotide. Treatment methods and measurements were identical to those employed in the first arm of the experiment. […] For the purpose of calculation, PC50 values for these animals were set at 20 mg/ml. The values given therefore represent a minimum figure for anti-sense effectiveness. Actual effectiveness was higher.
Aerosols of either adenosine (0-20 mglnml), or anti-sense or one of two mismatch oligonucleotides (5 mg/ml) were separately prepared with an ultrasonic nebulizer (Model 646, DeVilbiss, Somerset, Pa.), which produced aerosol droplets, 80% of which were smaller than 5:m in diameter. […]

Data set [2] concerns adenosine A2 receptors. Description: Adenosine A2 receptor binding ([3H]CGS-21680) in airway smooth muscle membranes of treated rabbits. Also noted: species or system rabbit. As to conditions: airway smooth muscle membranes after cross-over experiment; mean (n = 8) ± SEM. The source says:
At the conclusion of the cross-over experiment of Example 3 above, airway smooth muscle from all rabbits was quantitatively analyzed for adenosine A1 receptor number. As a control for the specificity of the anti-sense oligonucleotide, adenosine A2 receptors, which should not have been affected, were also quantified. Airway smooth muscle tissue was dissected from each rabbit and a membrane fraction prepared according to the method of Kleinstein et al. (Kleinstein, J. and Glossrnann, H., Naunyn-Schrniedeberg's Arch Pharmacol. 305: 191-200 (1978)), the relevant portion of which is hereby incorporated in its entirety by reference, with slight modifications. Crude plasma membrane preparations were stored at −70 EC until the time of assay. Protein content was determined by the method of Bradford (M. Bradford, Anal. Biochem. 72, 240-254 (1976), the relevant portion of which is hereby incorporated in its entirety by reference). Frozen plasma membranes were thawed at room temperature and were incubated with 0.2 U/ml adenosine deaminase for 30 minutes at 37 EC to remove endogenous adenosine. The binding of [^3H] […] CGS-21680 ([…]) was measured as previously described by Ali et al. (Ali, S. et al., J. Pharmacol. Exp. Ther. 268, Ara. J. Physiol 266, L271-277 (1994), the relevant portion of which is hereby incorporated in its entirety by reference). […]

As to “5′-GTAGCAGGCGGGGATGGGGGC-3′ [HAdA1MM1, reference compound]”, in data set [1] (allergic rabbits, cross-over experiment, 20 mg total aerosolized oligo), the “effect on PC50 Adenosine value” is reported as “No effect”. In addition, the “PC50 Post Oligonucleotide” value in data set [1] (asthmatic rabbits, approx. 5 mg aerosolized oligo twice daily for two days, third day, non-responders set at 20 mg/ml, mean (n = 8) ± SEM) turned out to be 5.16 ± 1.03 mg/mL. In addition, the “PC50 Pre Oligonucleotide” value in data set [1] (asthmatic rabbits, baseline before oligonucleotide, aerosolized adenosine reducing dynamic compliance 50%, mean (n = 8) ± SEM) is 3.56 ± 1.02 mg/mL. Besides, the toxicity entry in data set [1] (rabbits receiving inhaled oligonucleotide) was “No toxicity was observed”. Besides, in data set [2], the “A2-Specific Binding” value turned out to be 302 ± 22.
